Measurements reported in PubChem BioAssay (NCI).
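Test compounds were applied to cells in 96-well plates for 48 hours at 5 doses. Definition used: TGI = concentration required for complete inhibition of growth.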

Key:
Assay in all cases: inhibition of tumour cell growth, NCI panel, 48 h
CCRF-CEM leukemia = system: CCRF-CEM leukemia
PC-3 prostate = system: PC-3 prostate
SK-MEL-5 melanoma = system: SK-MEL-5 melanoma
MDA-MB-435 = system: MDA-MB-435
OVCAR-3 ovarian = system: OVCAR-3 ovarian
BT-549 breast = system: BT-549 breast
HL-60(TB) leukemia = system: HL-60(TB) leukemia
SK-MEL-28 melanoma = system: SK-MEL-28 melanoma
DU-145 prostate = system: DU-145 prostate
SF-539 CNS = system: SF-539 CNS
786-0 renal = system: 786-0 renal
SF-295 CNS = system: SF-295 CNS
RXF 393 renal = system: RXF 393 renal
SW-620 colon = system: SW-620 colon
SF-268 CNS = system: SF-268 CNS
OVCAR-4 ovarian = system: OVCAR-4 ovarian
NCI-H23 lung = system: NCI-H23 lung
MDA-N = system: MDA-N
CAKI-1 renal = system: CAKI-1 renal
MDA-MB-231 breast = system: MDA-MB-231 breast

| Structure (SMILES) | TGI (CCRF-CEM leukemia) [µM] | TGI (PC-3 prostate) [µM] | TGI (SK-MEL-5 melanoma) [µM] | TGI (MDA-MB-435) [µM] | TGI (OVCAR-3 ovarian) [µM] | TGI (BT-549 breast) [µM] | TGI (HL-60(TB) leukemia) [µM] | TGI (SK-MEL-28 melanoma) [µM] | TGI (DU-145 prostate) [µM] | TGI (SF-539 CNS) [µM] | TGI (786-0 renal) [µM] | TGI (SF-295 CNS) [µM] | TGI (RXF 393 renal) [µM] | TGI (SW-620 colon) [µM] | TGI (SF-268 CNS) [µM] | TGI (OVCAR-4 ovarian) [µM] | TGI (NCI-H23 lung) [µM] | TGI (MDA-N) [µM] | TGI (CAKI-1 renal) [µM] | TGI (MDA-MB-231 breast) [µM] |
| --- | --- | --- | --- | --- | --- | --- | --- | --- | --- | --- | --- | --- | --- | --- | --- | --- | --- | --- | --- | --- |
| COc1ccc(/C=C(/C(=O)c2ccc(Cl)cc2)N2C=CC=CC2=C(C#N)C#N)cc1OC | 0.665 | 12.9 | 22.9 | 19.1 | 15.2 | 22.5 | 7.79 | 11.5 | 28.5 | 22.3 | 5.29 | > 85.3 | 4.75 | > 32.9 | 17.2 | 20.5 | 27.5 | 20.1 | 5.69 | 21.6 |
| Oc1ccc2ccccc2c1/C=C/c1ccc2c(Br)cc(Br)c(O)c2n1 | 15.6 | 18.9 | 14.5 | 36.2 | 10 | 26.8 | 12.3 | 31.8 | 25.7 | 13.6 | 19.5 | 18.5 | 24.7 | 25.1 | 21.8 | 33.4 | 24.7 | 26.7 | 26.7 | 23.4 |
| NC(=O)C(N)Cc1ccc(O)cn1 (stereo not given) | > 100 | > 100 | > 100 | > 100 | > 100 | > 100 | > 100 | > 100 | > 100 | > 100 | > 100 | > 100 | > 100 | > 100 | > 100 | > 100 | > 100 | > 100 | > 100 | > 100 |
| O=[N+]([O-])c1cc2oc(COc3ccccc3)nc2cc1Cl | > 100 | > 100 | 25.5 | 52.4 | 48.2 | 60 | > 100 | > 100 | > 100 | 45.8 | > 100 | 38.8 | 69.5 | > 100 | > 100 | > 100 | 40.8 | 69.6 | 67.6 | 69.4 |
| O=[N+]([O-])c1ccc(Cl)c(C=NC23CC4CC(CC(C4)C2)C3)c1 | > 10 | > 10 | > 10 | > 10 | > 10 | > 10 | 4.46 | > 10 | > 10 | 9.9 | > 10 | > 10 | > 10 | > 10 | > 10 | > 10 | > 10 | > 10 | > 10 | > 10 |
